Measured values reported in patent US20200360520A1, “USE OF RIFAMYCIN-QUINOLIZIDONE COUPLING MOLECULE” (priority 2019, published 2020).
Values after ≈ are worked out from the molar mass of the structure shown. Where two headings read alike, the source gives them in different places.

Experiments:
Assay type in all cases: cell-based
[1] = tested on: Mycobacterium massiliense; test: MIC by micro broth dilution method (resazurin microtiter assay); settings: for MIC: Mycobacteroides abscessus, read-out: Minimum Inhibitory Concentration (MIC)
[2] = tested on: Mycobacterium abscessus; test: as above; settings: Mycobacteroides abscessus, read-out: Minimum Inhibitory Concentration (MIC)
[3] = tested on: Mycobacterium kansasii; test: as above; settings: for MIC: Mycobacterium kansasii, read-out: Minimum Inhibitory Concentration (MIC)
[4] = tested on: Mycobacterium avium; test: as above; settings: read-out: Minimum Inhibitory Concentration (MIC)
[5] = tested on: Mycobacterium abscessus; test: MBC test (plating on agar, CFU count); settings: for Minimum Bactericidal Concentration (MBC): MH Culture Medium; for MBC: Mycobacteroides abscessus, 7H9 Culture Medium, read-out: Minimum Bactericidal Concentration (MBC)
[6] = tested on: Mycobacterium kansasii; test: MBC test (plating on agar, CFU count); settings: for MBC: Mycobacterium kansasii, read-out: Minimum Bactericidal Concentration (MBC)
[7] = tested on: Mycobacterium fortuitum; test: MIC by micro broth dilution method (resazurin microtiter assay); settings: Mycolicibacterium fortuitum, MH Culture Medium, read-out: Minimum Inhibitory Concentration (MIC)
[8] = tested on: Mycobacterium intracellulare; test: as above; settings: for MIC: Mycobacterium intracellulare, MH Culture Medium, read-out: Minimum Inhibitory Concentration (MIC)
[9] = tested on: Mycodacterium chelonei; test: as above; settings: MH Culture Medium; Chelonei (standard strain); read-out: Minimum Inhibitory Concentration (MIC)
[10] = tested on: Mycobacterium avium; test: MBC test (plating on agar, CFU count); settings: for MBC: Mycobacterium avium, read-out: Minimum Bactericidal Concentration (MBC)
[11] = MH Culture Medium, clinically isolated strain Massiliense (D18)
[12] = MH Culture Medium, clinically isolated strain Massiliense (D10)
[13] = MH Culture Medium, Kansasii (standard strain)
[14] = MH Culture Medium, clinically isolated strain Kansasii (S9)
[15] = MH Culture Medium, clinically isolated strain Kansasii (S199)
[16] = MH Culture Medium, clinically isolated strain Kansasii (S520)
[17] = MH Culture Medium, clinically isolated strain Kansasii (S609)
[18] = 7H9 Broth, Mycobacterium avium Rough
[19] = 7H9 Broth, Mycobacterium avium Smooth
[20] = MH Broth, Mycobacterium avium Rough
[21] = MH Broth, Mycobacterium avium Smooth
[22] = MH Culture Medium, Avium (standard strain)
[23] = MH Culture Medium, clinically isolated strain Avium (S31)
[24] = MH Culture Medium, clinically isolated strain Avium (S123)
[25] = MH Culture Medium, clinically isolated strain Avium (S559)
[26] = MH Culture Medium, clinically isolated strain Avium (S568)
[27] = MH Culture Medium, clinically isolated strain Avium (S577)
[28] = MH Culture Medium, clinically isolated strain Avium (S597)
[29] = MH Culture Medium, clinically isolated strain Avium (S602)
[30] = clinically isolated strain Fortuitum (S103)
[31] = clinically isolated strain Fortuitum (S111)
[32] = Intracellulare (standard strain)
[33] = clinically isolated strain Intracellulare (S90)
[34] = clinically isolated strain Intracellulare (S261)
[35] = clinically isolated strain Intracellulare (S269)
[36] = clinically isolated strain Intracellulare (S290)
[37] = clinically isolated strain Intracellulare (S291)
[38] = clinically isolated strain Intracellulare (S298)
[39] = clinically isolated strain Intracellulare (S541)
[40] = clinically isolated strain Intracellulare (S623)
[41] = clinically isolated strain Intracellulare (ZPS)
[42] = clinically isolated strain intracellulare (S442)
[43] = 7H9 Culture Medium, Mycobacterium avium Rough
[44] = 7H9 Culture Medium, Mycobacterium avium Smooth
[45] = MH Culture Medium, Mycobacterium avium Rough
[46] = MH Culture Medium, Mycobacterium avium Smooth

CC[C@H]1OC(=O)[C@H](C)[C@@H](O[C@H]2C[C@@](C)(OC)[C@@H](O)[C@H](C)O2)[C@H](C)[C@@H](O[C@@H]2O[C@H](C)C[C@H](N(C)C)[C@H]2O)[C@](C)(OC)C[C@@H](C)C(=O)[C@H](C)[C@@H](O)[C@]1(C)O [Clarithromycin]
Minimum Inhibitory Concentration (MIC) [1, 11]: 0.0625 µg/mL | MIC [1, 12]: 0.25 µg/mL (≈ 0.334 µM) | MIC [1]: 0.0625 µg/mL (≈ 0.0836 µM) | MIC ([2]; 7H9 Broth): 16 µg/mL (≈ 21.4 µM) | MIC ([2]; MH Broth): 64 µg/mL (≈ 85.6 µM) | MIC ([3]; 7H9 Broth): 2 µg/mL (≈ 2.67 µM) | MIC ([3]; MH Broth): 2 µg/mL (≈ 2.67 µM) | MIC [3, 13]: 0.0625 µg/mL (≈ 0.0836 µM) | MIC [3, 14]: 0.125 µg/mL (≈ 0.167 µM) | MIC [3, 15]: 0.0625 µg/mL (≈ 0.0836 µM) | MIC [3, 16]: 0.0625 µg/mL (≈ 0.0836 µM) | MIC [3, 17]: 0.125 µg/mL (≈ 0.167 µM) | MIC [4, 18]: > 64 µg/mL | MIC [4, 19]: 32 µg/mL (≈ 42.8 µM) | MIC [4, 20]: > 64 µg/mL | MIC [4, 21]: > 64 µg/mL | MIC [4, 22]: 0.0625 µg/mL (≈ 0.0836 µM) | MIC [4, 23]: 0.125 µg/mL (≈ 0.167 µM) | MIC [4, 24]: 0.5 µg/mL (≈ 0.668 µM) | MIC [4, 25]: 0.25 µg/mL (≈ 0.334 µM) | MIC [4, 26]: 4 µg/mL (≈ 5.35 µM) | MIC [4, 27]: 0.25 µg/mL (≈ 0.334 µM) | MIC [4, 28]: 1 µg/mL (≈ 1.34 µM) | MIC [4, 29]: 1 µg/mL (≈ 1.34 µM) | Minimum Bactericidal Concentration (MBC) [5]: >64 µg/mL | MBC [5]: > 64 µg/mL | MBC ([6]; 7H9 Culture Medium): 64 µg/mL (≈ 85.6 µM) | MBC ([6]; MH Culture Medium): > 64 µg/mL | MIC ([7]; Fortuitum (standard strain)): 32 µg/mL (≈ 42.8 µM) | MIC [7, 30]: > 64 µg/mL | MIC [7, 31]: 2 µg/mL (≈ 2.67 µM) | MIC [8, 32]: 0.0625 µg/mL (≈ 0.0836 µM) | MIC [8, 33]: 1 µg/mL (≈ 1.34 µM) | MIC [8, 34]: 1 µg/mL (≈ 1.34 µM) | MIC [8, 35]: 1 µg/mL (≈ 1.34 µM) | MIC [8, 36]: 1 µg/mL (≈ 1.34 µM) | MIC [8, 37]: 1 µg/mL (≈ 1.34 µM) | MIC [8, 38]: 2 µg/mL (≈ 2.67 µM) | MIC [8, 39]: 64 µg/mL (≈ 85.6 µM) | MIC [8, 40]: 4 µg/mL (≈ 5.35 µM) | MIC [8, 41]: 1 µg/mL (≈ 1.34 µM) | MIC [8, 42]: 2 µg/mL (≈ 2.67 µM) | MIC [9]: 0.5 µg/mL (≈ 0.668 µM) | MBC [10, 43]: > 64 µg/mL | MBC [10, 44]: > 64 µg/mL | MBC [10, 45]: > 64 µg/mL | MBC [10, 46]: > 64 µg/mL

CO[C@H]1/C=C/O[C@@]2(C)Oc3c(C)c(O)c4c(O)c(c(/C=N/N5CCC(N(C)C6([C@@H]7CCN(c8c(F)cn9c(=O)c(C(=O)O)cc(C%10CC%10)c9c8C)C7)CC6)CC5)c(O)c4c3C2=O)NC(=O)/C(C)=C\C=C\[C@H](C)[C@H](O)[C@@H](C)[C@@H](O)[C@@H](C)[C@H](CC(C)=O)[C@@H]1C [Compound I]
MIC [1, 12]: > 64 µg/mL | MIC ([1]; MH Culture Medium, clinically isolated strain Massiliense (D14)): > 64 µg/mL | MIC [1, 11]: > 64 µg/mL | MIC ([2]; 7H9 Broth): 1 µg/mL (≈ 0.831 µM) | MIC ([2]; MH Broth): 1 µg/mL (≈ 0.831 µM) | MIC ([3]; 7H9 Broth): 2 µg/mL (≈ 1.66 µM) | MIC ([3]; MH Broth): 2 µg/mL (≈ 1.66 µM) | MIC [3, 13]: 0.0625 µg/mL (≈ 0.0519 µM) | MIC [3, 14]: 0.25 µg/mL (≈ 0.208 µM) | MIC [3, 15]: 0.0625 µg/mL (≈ 0.0519 µM) | MIC [3, 16]: 0.0625 µg/mL (≈ 0.0519 µM) | MIC [3, 17]: 0.0625 µg/mL (≈ 0.0519 µM) | activity compared with controls, in words ([3]; against mycobacterium kansasii): much higher than that of rifampicin, ciprofloxacin and metronidazole | MIC [4, 18]: > 64 µg/mL | MIC [4, 19]: 4 µg/mL (≈ 3.32 µM) | MIC [4, 20]: > 64 µg/mL | MIC [4, 21]: 4 µg/mL (≈ 3.32 µM) | MIC [4, 22]: 1 µg/mL (≈ 0.831 µM) | MIC [4, 23]: 0.25 µg/mL (≈ 0.208 µM) | MIC [4, 24]: 8 µg/mL (≈ 6.65 µM) | MIC [4, 25]: 0.25 µg/mL (≈ 0.208 µM) | MIC [4, 26]: 32 µg/mL (≈ 26.6 µM) | MIC [4, 27]: 0.125 µg/mL (≈ 0.104 µM) | MIC [4, 28]: > 64 µg/mL | MIC [4, 29]: 8 µg/mL (≈ 6.65 µM) | Minimum Bactericidal Concentration (MBC) [5]: 1 µg/mL | MBC [5]: 1 µg/mL (≈ 0.831 µM) | MBC ([6]; 7H9 Culture Medium): 2 µg/mL (≈ 1.66 µM) | MBC ([6]; MH Culture Medium): 2 µg/mL (≈ 1.66 µM) | bactericidal activity (MBC) compared with controls, in words ([6]; against mycobacterium kansasii): higher than or much higher than that of all other tested antibiotic drugs | MIC ([7]; Fortuitum (standard strain)): 64 µg/mL (≈ 53.2 µM) | MIC [7, 30]: > 64 µg/mL | MIC [7, 31]: > 64 µg/mL | MIC [8, 32]: 0.5 µg/mL (≈ 0.415 µM) | MIC [8, 33]: 64 µg/mL (≈ 53.2 µM) | MIC [8, 34]: 64 µg/mL (≈ 53.2 µM) | MIC [8, 35]: > 64 µg/mL | MIC [8, 36]: 64 µg/mL (≈ 53.2 µM) | MIC [8, 37]: 64 µg/mL (≈ 53.2 µM) | MIC [8, 38]: 64 µg/mL (≈ 53.2 µM) | MIC [8, 39]: 32 µg/mL (≈ 26.6 µM) | MIC [8, 40]: 64 µg/mL (≈ 53.2 µM) | MIC [8, 41]: 32 µg/mL (≈ 26.6 µM) | MIC [8, 42]: 32 µg/mL (≈ 26.6 µM) | activity, in words ([8]; against Mycobacterium intracellulare): weak | MIC [9]: 64 µg/mL (≈ 53.2 µM) | MBC [10, 43]: > 64 µg/mL | MBC [10, 44]: 16 µg/mL (≈ 13.3 µM) | MBC [10, 45]: > 64 µg/mL | MBC [10, 46]: 16 µg/mL (≈ 13.3 µM) | bactericidal activity (MBC), in words ([10]; against smooth type strain of Mycobacterium avium): had an activity
